US12077503B2, “Substituted cyclic amides and their use as herbicides” (FMC CORPORATION, priority 2015, dated 2024)
Where two headings read alike, the source gives them in different places.

How the values were obtained:
Type in all cases: in vivo
Kochia (Kochia scoparia) [1] = experiment: Test A preemergence; settings: Bassia scoparia, pre-emergence, 240 h; for pest or weed control at 125 g/ha: 125 g ai/ha, preemergence, 0 to 100 scale where 0 is no effect and 100 is complete control, read-out: Kochia plant response rating; for pest or weed control at 500 g/ha: 500 g ai/ha, Preemergence, visual injury vs untreated controls after approximately 10 d, read-out: Kochia plant response rating (0 to 100 scale where 0 is no effect and 100 is complete control)
Method in brief: (§1)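 Greenhouse, ~10 d after spray; visual injury vs untreated controls, 0 = no effect, 100 = complete control. Preemergence: directed soil spray over planted seeds. Postemergence: plants 2–10 cm, 1–2 leaf stage. Loam/sand blend. Compound in non-phytotoxic solvent with surfactant.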

[2] = test system: barnyardgrass (Echinochloa crus-galli); experiment: Test A preemergence; settings: Echinochloa crus-galli, pre-emergence, 240 h; for pest or weed control at 125 g/ha: 125 g ai/ha, preemergence, 0 to 100 scale where 0 is no effect and 100 is complete control, read-out: Barnyardgrass plant response rating; for pest or weed control at 500 g/ha: 500 g ai/ha, Preemergence, visual injury vs untreated controls after approximately 10 d, read-out: Barnyardgrass plant response rating (0 to 100 scale where 0 is no effect and 100 is complete control)
Method in brief: as §1

[3] = test system: giant foxtail (Setaria faberii); experiment: Test A preemergence; settings: Setaria faberi, pre-emergence, 240 h; for pest or weed control at 125 g/ha: 125 g ai/ha, preemergence, 0 to 100 scale where 0 is no effect and 100 is complete control, read-out: Foxtail, Giant plant response rating; for pest or weed control at 500 g/ha: 500 g ai/ha, Preemergence, visual injury vs untreated controls after approximately 10 d, read-out: Foxtail, Giant plant response rating (0 to 100 scale where 0 is no effect and 100 is complete control)
Method in brief: as §1

[4] = test system: pigweed (Amaranthus retroflexus); experiment: Test A preemergence; settings: Amaranthus retroflexus, pre-emergence, 240 h; for pest or weed control at 125 g/ha: 125 g ai/ha, preemergence, 0 to 100 scale where 0 is no effect and 100 is complete control, read-out: Pigweed plant response rating; for pest or weed control at 500 g/ha: 500 g ai/ha, Preemergence, visual injury vs untreated controls after approximately 10 d, read-out: Pigweed plant response rating (0 to 100 scale where 0 is no effect and 100 is complete control)
[5] = test system: ragweed (common ragweed, Ambrosia elatior); experiment: Test A preemergence; settings: Ambrosia artemisiifolia, pre-emergence, 240 h; for pest or weed control at 125 g/ha: 125 g ai/ha, preemergence, 0 to 100 scale where 0 is no effect and 100 is complete control, read-out: Ragweed plant response rating; for pest or weed control at 500 g/ha: 500 g ai/ha, Preemergence, visual injury vs untreated controls after approximately 10 d, read-out: Ragweed plant response rating (0 to 100 scale where 0 is no effect and 100 is complete control)
Method in brief: as §1

[6] = test system: ryegrass, Italian (Italian ryegrass, Lolium multiflorum); experiment: Test A preemergence; settings: Lolium multiflorum, pre-emergence, 240 h; for pest or weed control at 125 g/ha: 125 g ai/ha, preemergence, 0 to 100 scale where 0 is no effect and 100 is complete control, read-out: Ryegrass, Italian plant response rating; for pest or weed control at 500 g/ha: 500 g ai/ha, Preemergence, visual injury vs untreated controls after approximately 10 d, read-out: Ryegrass, Italian plant response rating (0 to 100 scale where 0 is no effect and 100 is complete control)
Method in brief: as §1

[7] = test system: Galium (catchweed bedstraw, Galium aparine); experiment: Test A postemergence; settings: Galium, post-emergence, 240 h, 125 g ai/ha
Method in brief: as §1

Kochia (Kochia scoparia) [8] = experiment: Test A postemergence; settings: Bassia scoparia, post-emergence, 240 h, 125 g ai/ha
Method in brief: as §1

[9] = test system: barnyardgrass (Echinochloa crus-galli); experiment: Test A postemergence; settings: Echinochloa crus-galli, post-emergence, 240 h, 125 g ai/ha
Method in brief: as §1

corn (Zea mays) = experiment: Test A postemergence; settings: Zea mays, post-emergence, 240 h, 125 g ai/ha; for Corn plant response rating (crop injury, 0 = no effect, 100 = complete kill) at 125 g/ha: Postemergence, visual injury after approximately 10 d, 0 to 100 scale where 0 is no effect and 100 is complete control
Method in brief: as §1

[10] = test system: pigweed (Amaranthus retroflexus); experiment: Test A postemergence; settings: Amaranthus retroflexus, post-emergence, 240 h, 125 g ai/ha
Method in brief: as §1

[11] = test system: barnyardgrass (Echinochloa crus-galli); experiment: Test B flooded paddy test; settings: Echinochloa crus-galli, Flood, 250 g ai/ha; scale of 0 to 100 where 0 is no effect and 100 is complete control; read-out: Barnyardgrass plant response rating
Method in brief: (§2)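 Greenhouse paddy pots with 2-leaf stage plants received compound by direct addition to floodwater 3 cm deep, kept at that level. Scored visually at 13–15 d versus controls (0 no effect; 100 complete control).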

[12] = test system: ducksalad (Heteranthera limosa); experiment: Test B flooded paddy test; settings: Heteranthera limosa, Flood, 250 g ai/ha; scale of 0 to 100 where 0 is no effect and 100 is complete control; read-out: Ducksalad plant response rating
Method in brief: as §2

rice (Oryra sativa) = experiment: Test B flooded paddy test; settings: Oryza sativa, Flood, 250 g ai/ha; scale of 0 to 100 where 0 is no effect and 100 is complete control; read-out: Rice plant response rating
Method in brief: as §2

[13] = test system: sedge, umbrella (small-flower umbrella sedge, Cyperus difformis); experiment: Test B flooded paddy test; settings: Cyperus difformis, Flood, 250 g ai/ha; scale of 0 to 100 where 0 is no effect and 100 is complete control; read-out: Sedge, Umbrella plant response rating
Method in brief: as §2

[14] = Postemergence, visual injury after approximately 10 d, 0 to 100 scale where 0 is no effect and 100 is complete control, read-out: Plant response rating, Galium
[15] = Postemergence, visual injury after approximately 10 d, 0 to 100 scale where 0 is no effect and 100 is complete control, read-out: Plant response rating, Kochia
[16] = Postemergence, visual injury after approximately 10 d, 0 to 100 scale where 0 is no effect and 100 is complete control, read-out: Plant response rating, Barnyardgrass
[17] = Postemergence, visual injury after approximately 10 d, 0 to 100 scale where 0 is no effect and 100 is complete control, read-out: Plant response rating, Pigweed

Structure (SMILES) | pest or weed control at 125 g/ha (Kochia (Kochia scoparia) [1]) | pest or weed control at 500 g/ha (Kochia (Kochia scoparia) [1]) | pest or weed control at 125 g/ha [2] | pest or weed control at 500 g/ha [2] | pest or weed control at 125 g/ha [3] | pest or weed control at 500 g/ha [3] | pest or weed control at 125 g/ha [4] | pest or weed control at 500 g/ha [4] | pest or weed control at 125 g/ha [5] | pest or weed control at 500 g/ha [5] | pest or weed control at 125 g/ha [6] | pest or weed control at 500 g/ha [6] | pest or weed control at 250 g/ha [11] | pest or weed control at 250 g/ha [12] | pest or weed control at 250 g/ha (rice (Oryra sativa)) | pest or weed control at 250 g/ha [13] | pest or weed control at 125 g/ha [7, 14] | pest or weed control at 125 g/ha (Kochia (Kochia scoparia) [8]; [15]) | pest or weed control at 125 g/ha [9, 16] | Corn plant response rating (crop injury, 0 = no effect, 100 = complete kill) at 125 g/ha (corn (Zea mays)) | further results
CCOc1ccc([C@H]2CNC(=O)[C@@H]2C(=O)Nc2ccc(F)cc2F)cc1 [Compound 908] | 0% | 0% | 0% | 50% | 30% | 80% | 0% | 0% | 0% | 0% | 0% | 0% | 0% | 0% | 0% | 0% |  |  |  |  | pest or weed control at 125 g/ha ([7]; postemergence, visual injury rating after approximately 10 d, read-out: Galium plant response rating (0 to 100 scale, 0 no effect, 100 complete control)): 0%; pest or weed control at 125 g/ha (Kochia (Kochia scoparia) [8]; postemergence, visual injury rating after approximately 10 d, read-out: Kochia plant response rating (0 to 100 scale, 0 no effect, 100 complete control)): 0%; pest or weed control at 125 g/ha ([9]; postemergence, visual injury rating after approximately 10 d, read-out: Barnyardgrass plant response rating (0 to 100 scale, 0 no effect, 100 complete control)): 20%; plant injury at 125 g/ha (corn (Zea mays); postemergence, visual injury rating after approximately 10 d, read-out: Corn plant response rating (0 to 100 scale, 0 no effect, 100 complete control)): 0%; pest or weed control at 125 g/ha ([10]; postemergence, visual injury rating after approximately 10 d, read-out: Pigweed plant response rating (0 to 100 scale, 0 no effect, 100 complete control)): 0%
CN1C[C@H](c2ccc(C(F)(F)F)cc2)[C@@H](C(=O)Nc2ccccc2[S+](C)[O-])C1=O (stereo partly drawn) [Compound 915] | 80% | 90% | 100% | 100% | 90% | 100% | 80% | 90% | 80% | 90% | 40% | 70% | 40% | 100% | 20% | 0% | 50% | 20% | 90% | 0% | pest or weed control at 125 g/ha [10, 17]: 60%
CON1CC[C@H](c2ccc(F)cc2)[C@@H](C(=O)Nc2cccc(F)c2F)C1=O [Compound 918] | 0% | 0% | 0% | 40% | 20% | 70% | 0% | 0% | 0% | 0% | 0% | 0% | 0% | 30% | 15% | 0% | 0% | 0% | 0% | 0% | pest or weed control at 125 g/ha [10, 17]: 0%
CN1CC[C@H](c2cccc(C(F)(F)F)c2)[C@@H](C(=O)Nc2ccccc2S(C)(=O)=O)C1=O [Compound 920] | 0% | 0% | 70% | 90% | 80% | 90% | 0% | 0% | 0% | 0% | 0% | 0% | 0% | 0% | 0% | 0% | 0% | 0% | 40% | 0% | pest or weed control at 125 g/ha [10, 17]: 0%
CN1CC[C@H](c2cccc(Cl)c2)[C@@H](C(=O)Nc2cccc(F)c2F)C1=O [Compound 921] | 0% | 30% | 90% | 90% | 90% | 100% | 0% | 0% | 0% | 0% | 50% | 60% | 85% | 90% | 20% | 0% | 0% | 0% | 90% | 20% | pest or weed control at 125 g/ha [10, 17]: 0%
